PubChem BioAssay AID1159561 (GlaxoSmithKline (GSK), 2015)
Calls of active or inactive are those of the source.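 Rule for the calls: active = toxic to mouse fibroblast host cells, with IC50 below 50 µM; inactive = the rest.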

test system: NIH-3T3 viability, ATP luminescence; assay: murine fibroblast viability via ATP level – cell-based, murine fibroblasts, cytotoxicity control for Trypanosoma cruzi inhibitor project (AID 1159561); settings: 4 days

Row | Structure (SMILES) | IC50
1 | C=CCOCC1Cn2nc([N+](=O)[O-])nc2O1 (stereo not given) | > 50 µM (inactive)
2 | CN(C)CCOc1ccc(N2CCN(S(=O)(=O)c3ccc(Cl)cc3)CC2)cc1 | 16 µM
3 | Clc1ccc(CN2CCN(C3=NCCN3)CC2)cc1Cl | 40 µM
4 | CN(C(=O)Nc1ccc2c(c1)CCN(C1CCC1)CC2)c1ccc(C#N)cc1 | 40 µM
5 | COc1ccc(C(=O)N2CCC(Nc3cccnc3)C2)c(OC)n1 (stereo not given) | > 50 µM (inactive)
6 | Cc1ccc(NC(=O)c2ccc(Cl)c(NC(=O)c3ccc([N+](=O)[O-])cc3)c2)cc1 | 20 µM
7 | Clc1cc(Br)ccc1OCCCCn1ccnc1 | 16 µM
8 | CCCc1nc2nc(N)nc(N)c2cc1CC | 32 µM
9 | COc1ccc2ncc(=O)n(CCN3CCOC(CNCc4ccc(C(F)(F)F)cc4F)C3)c2n1 (stereo not given) | 4 µM
10 | CCCC(=O)N(Cc1ccccn1)c1nc2ccccc2s1 | > 50 µM (inactive)
11 | O=C(NCCc1cccnc1)c1csc(-c2ccccc2)n1 | 50 µM
12 | N#Cc1cccc(CN2CCC(c3nc(-c4ccc(C(F)(F)F)nc4)no3)CC2)c1 | > 50 µM (inactive)
13 | CN(Cc1ccccc1)Cc1nnnn1C1CCN(Cc2ccc(-n3ccnc3)cc2)CC1 | 4 µM
14 | COc1cc(C(C)C)c(S(C)(=O)=O)cc1C(=O)N1CCN(c2ccccc2Cl)CC1 | > 50 µM (inactive)
15 | CC(CNS(=O)(=O)c1ccc(OC(F)F)cc1)c1ccc(NC(=O)c2ccncc2)cc1 (stereo not given) | > 50 µM (inactive)
16 | O=S(=O)(c1ccccc1C(F)(F)F)N1CCN(Cc2ccc(-n3ccnc3)cc2)CC1 | > 50 µM (inactive)
17 | O=C(NCCc1ccccn1)C(c1cn[nH]c1)N1CCN(c2ccc(Cl)c(Cl)c2)CC1 (stereo not given) | 32 µM
18 | FC(F)(F)c1cc(C2CCCN(Cc3c[nH]c4ccccc34)C2)nc2ncnn12 (stereo not given) | 20 µM
19 | CCN(C)Cc1ccc(N2CCC(NS(=O)(=O)c3ccc4c(c3)CCO4)CC2)nc1 | 13 µM
20 | Cc1cccc(N2CCCN(Cc3c[nH]c4ccccc34)CC2)n1 | 25 µM
21 | Nc1ncnc2c1ncn2[C@@H]1O[C@H](CO)C[C@H]1O | > 50 µM (inactive)
22 | COc1cc(-c2nc(N3CCOCC3)sc2-c2ccnc(NC3CCOCC3)n2)ccc1Cl | > 50 µM (inactive)
23 | COc1ccc(CN(C)Cc2ccncc2)cc1-c1ccc(S(=O)(=O)NC2CCC2)s1 | 25 µM
24 | N#Cc1cc([N+](=O)[O-])ccc1NC1CCCCCC1 | > 50 µM (inactive)
25 | CCOc1ccc(NC(=O)C=Cc2ccc(CC)o2)cc1 | 32 µM
26 | COc1ccc(S(=O)(=O)NCc2ccc(-c3ccc(CN(C)CCO)cc3)cc2)cc1 | 16 µM
27 | O=C(NCc1ccc(-n2cccc2)cc1)c1nc(Cn2ccc([N+](=O)[O-])n2)no1 | 50 µM

Row | Structure (SMILES) | IC50
28 | O=[N+]([O-])c1ccc(C2=CC(c3ccccc3)=NCCN2)cc1 | 7.9 µM
29 | COc1ccc(CN2CCCCC2c2nc(-c3cccnc3)no2)cc1 (stereo not given) | > 50 µM (inactive)
30 | Cc1nn(C)c(Cl)c1CN(Cc1cccnc1)Cc1ccsc1 | 20 µM
31 | COc1ccccc1-c1c(C)[nH]c2nc(N)nc(C)c12 | > 50 µM (inactive)
32 | Cc1cc2cncn2c(C2CCCCN2C(=O)c2cccs2)n1 (stereo not given) | > 50 µM (inactive)
33 | Cc1nc(N2CCC(C(=O)N3CCC(O)(c4cccnc4)CC3)CC2)nc2ccc(C(C)C)cc12 | 25 µM
34 | Cc1c(CNC(=O)c2ccc(Cn3cc(Cl)c([N+](=O)[O-])n3)cc2)cnn1C | > 50 µM (inactive)
35 | Cc1cccnc1CN1CCN(CCCOc2ccc(-c3ccc(C(N)=O)cc3)cc2)CC1 | 6.3 µM
36 | C=CCn1nc([N+](=O)[O-])nc1Oc1ccc(Cl)cc1Cl | 50 µM
37 | N#Cc1cccc(CN2CCC(N(Cc3cccnc3)C(=O)c3cc(F)c(F)cc3F)CC2)c1 | 20 µM
38 | CC1=NN(C(=O)CCn2cnc([N+](=O)[O-])n2)C(O)(C(F)(F)F)C1 (stereo not given) | > 50 µM (inactive)
39 | Cc1ccc2ccc(C(Nc3ccccn3)c3cccnc3)c(O)c2n1 (stereo not given) | 10 µM
40 | Cn1cncc1CN1CCC2(CC1)COC(Cc1ccccc1)C2 (stereo not given) | 25 µM
41 | CC(C(=O)Nc1ccccc1F)N(C)CC(=O)Nc1cccc2ccccc12 (stereo not given) | 13 µM
42 | COc1ccc(C(C)N(C)c2ncc3c(N)nc(N)nc3n2)cc1F (stereo not given) | 40 µM
43 | O=c1[nH]c(C=Cc2cccc(OCCOc3ccccc3)c2)nc(O)c1[N+](=O)[O-] | > 50 µM (inactive)
44 | CS(=O)(=O)c1cccc(-c2cnc(N)c3c(-c4ccc(CO)cc4)csc23)c1 | 25 µM
45 | c1ccc(CCNCc2cncc3nc(-c4cnccn4)n(C4CCCCC4)c23)cc1 | 6.3 µM
46 | CCCN(Cc1ccc(OC)c(OC)c1)Cc1cc(=O)c2c(C)cc(C)cc2[nH]1 | 32 µM
47 | CCn1nccc1CN(C)C(=O)C=Cc1ccc(Cl)cc1 | > 50 µM (inactive)
48 | CCN(Cc1ccncc1)Cc1ccc(NC(=O)c2cc(-c3ccc(F)cc3)n[nH]2)cc1 | 10 µM
49 | CC(Cn1ccnc1)NC(=O)C=Cc1ccc(Cl)cc1 (stereo not given) | > 50 µM (inactive)
50 | CC(C)(C)C(O)(CCc1ccc(Cl)cc1)Cn1cncn1 (stereo not given) | > 50 µM (inactive)
51 | CN(C)Cc1ccc(-c2ccc(S(=O)(=O)NCC3CCCO3)c(F)c2)cc1 (stereo not given) | 16 µM
52 | COc1ccc2c(Cl)c(C(=O)N3CCC3)sc2c1Cl | > 50 µM (inactive)
53 | CN(C)c1ncc(-c2cncn2CCOc2ccc(Cl)cc2)cn1 | 40 µM
54 | O=C(COc1ncnc2cc([N+](=O)[O-])ccc12)NC(=O)NC1CCCCC1 | > 50 µM (inactive)

Row | Structure (SMILES) | IC50
55 | Cn1c(CN2CCN(c3ncc(C(F)(F)F)cc3Cl)CC2)nc2ccncc21 | 10 µM
56 | Cc1cc2ncn(-c3ccc([N+](=O)[O-])cc3C#N)c2cc1C | > 50 µM (inactive)
57 | O=c1oc2ccccc2n1C1CCN(Cc2ccccc2-c2cccnc2)CC1 | 16 µM
58 | Cc1nc2nc(C)c(Cc3ccc(C(C)C)cc3)c(=O)n2[nH]1 | > 50 µM (inactive)
59 | Cc1nccn1C1CCCN(C(=O)c2cc3c(F)cccc3s2)C1 (stereo not given) | 20 µM
60 | CNc1cncc(C2CCCN2C(=O)Cc2coc3cc(C)ccc23)n1 (stereo not given) | > 50 µM (inactive)
61 | Cn1cc(CN2CCN(c3ccc4c(c3)CCN(C(=O)[C@H]3C[C@@H]3c3ccccc3)CC4)CC2)cn1 | 20 µM
62 | COc1ccc(-c2nc3ccncc3c(=O)n2CCOc2ccccc2)cc1 | 32 µM
63 | CN1CCN(c2nc(-c3ccc(Cl)cc3)c3c(N)n(C)nc3n2)CC1 | 25 µM
64 | Cc1ccc(NC(=O)C(C)n2nc([N+](=O)[O-])c(Br)c2C)cc1Cl (stereo not given) | 13 µM
65 | CN(Cc1cccnc1)Cc1ccc(N2CCN(C(=O)C3(c4ccc(Cl)cc4)CC3)CC2)nc1 | 7.9 µM
66 | CCCN1CCN(Cc2ccc(S(=O)(=O)Nc3cccc(C)c3)cc2)CC1 | 25 µM
67 | COc1ccc(NS(=O)(=O)c2cccc(NC(=O)c3cc(F)cc(F)c3)c2)cc1 | 25 µM
68 | N#Cc1c(Oc2cccc(Cl)c2)cccc1[N+](=O)[O-] | 20 µM
69 | Cc1[nH]nc2c1C(c1ccc(OCc3ccccc3F)cc1)SCC(=O)N2 (stereo not given) | > 50 µM (inactive)
70 | CCCCn1nnnc1CSc1nc(C)cc(C)c1C#N | > 50 µM (inactive)
71 | O=C(NCc1ccncc1)c1ccccc1N1CCCN(C(=O)Cc2ccc(F)c(F)c2)CC1 | 16 µM
72 | Cc1nn(C2CCS(=O)(=O)C2)c(C)c1CN(C)C(=O)C=Cc1sc2ccccc2c1Cl (stereo not given) | > 50 µM (inactive)
73 | N#Cc1ccc(S(=O)(=O)N2CCC3(CCN(c4ccccc4)C3=O)CC2)cc1 | > 50 µM (inactive)
74 | N#Cc1nc(C=Cc2ccccc2)oc1NCc1cccnc1 | 13 µM
75 | O=C1CCCCCC1(Cc1cnc[nH]1)c1ccc(Cl)cc1Cl (stereo not given) | 20 µM
76 | COc1ccc(NS(=O)(=O)c2cc(NC(=O)Cc3ccc(C)cc3)ccc2N2CCOCC2)cc1 | 25 µM
77 | CN(Cc1cc2ccccc2s1)c1ncc2c(N)nc(N)nc2n1 | 25 µM
78 | O=[N+]([O-])c1cccc(Nc2cncc(-c3ccccc3CO)c2)c1 | 40 µM
79 | Fc1ccccc1N1C[C@H]2CCN(c3cccnc3)C[C@H]2C1 | 13 µM
80 | Cc1ccc(CNC2CCN(C[C@@H]3Cn4c(=O)ccc5ccc(=O)n3c54)CC2)cc1F | 16 µM
81 | COc1ccc(C)cc1-c1csc(NC(=O)C(C)n2ccnc2)n1 (stereo not given) | 50 µM

Row | Structure (SMILES) | IC50
82 | COc1ccc([N+](=O)[O-])cc1NC(=O)Nc1cccc(Cl)c1 | > 50 µM (inactive)
83 | Cc1cc(C)c(C#N)c(SCC(=O)c2ccc3c(c2)OCO3)n1 | > 50 µM (inactive)
84 | O=C(Nc1ncc([N+](=O)[O-])s1)C1CC1 | 32 µM
85 | O=C(c1ccc(OCCCc2cnc[nH]2)cc1)C1CC1 | 13 µM
86 | NC(=O)c1ccc(-c2cccc(OCCN3CCN(C4CCCCC4)CC3)c2)cc1 | 16 µM
87 | O=C(NCCc1nc(-c2ccc(F)c(F)c2)n[nH]1)C1CCCCC1 | > 50 µM (inactive)
88 | CCOc1cnn(C)c(=O)c1Nc1ccc(C(=O)NCc2ccc(F)cc2)cc1 | > 50 µM (inactive)
89 | Fc1ccc(OC2CC(NCc3cccc4cn[nH]c34)C2)cc1C(F)(F)F (stereo not given) | 13 µM
90 | OCCCNc1nc(Nc2ccncc2)nc2ccccc12 | > 50 µM (inactive)
91 | Cc1cc(Br)cc(C(=O)c2c(C(C)C)c(=O)[nH]c(=O)n2Cc2ccnc(N)c2)c1 | 16 µM
92 | Cc1ccc(C)c(-n2nnnc2Sc2nc([N+](=O)[O-])nn2C)c1 | > 50 µM (inactive)
93 | COc1ccc2nccc([C@H](O)CN3CC[C@H](NC(=O)c4ccc(Br)cc4)[C@@H](O)C3)c2n1 | > 50 µM (inactive)
94 | O=C(NC(c1ccc(Cl)cc1)c1cnccn1)C1CCN(C(=O)Nc2cccc(C(F)(F)F)c2)CC1 (stereo not given) | 40 µM
95 | c1ccc2c(CCOc3nccnc3-c3ccncc3)c[nH]c2c1 | 20 µM
96 | CN1CCCN(C(=O)c2ccc(N3CCCC3)cc2Cl)CC1 | 25 µM
97 | O=C(Cn1cnc2cc([N+](=O)[O-])ccc2c1=O)NCCc1ccc(Cl)cc1Cl | > 50 µM (inactive)
98 | Cc1c(C(C)NC(=O)Nc2cccc(Cl)c2)sc2ncnn12 (stereo not given) | > 50 µM (inactive)
99 | Cc1cc(N(C)C)nc(Nc2ccccc2C)n1 | 40 µM
100 | N#Cc1cc(N2CCCC2=O)ccc1Sc1ccccc1CO | > 50 µM (inactive)
101 | CC(C)(C)C(Cn1ccnc1)NC(=O)c1ccc2nc(C3CC3)oc2c1 (stereo not given) | > 50 µM (inactive)
102 | Cc1ccc2nc(N(Cc3cccnc3)C(=O)CCc3ccccc3)sc2c1 | 16 µM
103 | COc1ccc(NS(=O)(=O)c2cc(NC(=O)c3ccc([N+](=O)[O-])s3)ccc2OC)cc1 | > 50 µM (inactive)
104 | Cc1nnnn1-c1cccc(C(=O)N2CCC[C@@]3(C)c4ncncc4CCC23)c1 (stereo not given in full) | > 50 µM (inactive)
105 | O=S(=O)(NCC(c1cccnc1)N1CCN(c2ccc(F)cc2)CC1)c1cccs1 (stereo not given) | > 50 µM (inactive)
